pKi: −log10 of the molar value. Values joined by “and” are separate entries in the source; they are usually repeats but may differ in a detail not shown here. Equal entries are not always repeated.
Molecular target: Hrh3 protein (Rattus norvegicus, UniProt Q5PPG3)
Sequence (Q5PPG3 whole entry): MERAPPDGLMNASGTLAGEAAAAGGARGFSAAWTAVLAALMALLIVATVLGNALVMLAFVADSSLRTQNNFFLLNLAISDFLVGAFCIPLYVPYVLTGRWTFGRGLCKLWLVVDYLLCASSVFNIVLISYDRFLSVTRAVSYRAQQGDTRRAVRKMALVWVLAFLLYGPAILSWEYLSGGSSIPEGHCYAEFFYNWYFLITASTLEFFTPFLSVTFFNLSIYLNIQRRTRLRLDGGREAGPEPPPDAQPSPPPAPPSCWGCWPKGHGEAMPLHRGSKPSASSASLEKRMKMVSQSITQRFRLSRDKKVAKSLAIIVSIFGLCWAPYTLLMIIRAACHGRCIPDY

| Structure (SMILES) | pKi |
| --- | --- |
| C[C@@H](N)Cc1c[nH]cn1 | 8.40 and 9.30 |
| S=C(NC1CCCCC1)N1CCC(c2cnc[nH]2)CC1 | 8.40 and 8.70 |
| CNC(=S)NCCCCc1cnc[nH]1 [1-[4-(1H-imidazol-5-yl)butyl]-3-methylthiourea] | 7.17 and 7.15 and 6.74 |
| N=C(N)SCCc1cnc[nH]1 [2-(3H-imidazol-4-yl)ethylsulfanylmethanimidamide] | 9.82 and 9.00 and 10.00 |
| Cc1[nH]cnc1CSCCNC(=N)NCCCc1c[nH]cn1 [2-[3-(1H-imidazol-5-yl)propyl]-1-(2-{[(5-methyl-1H-imidazol-4-yl)methyl]sulfanyl}ethyl)guanidine] | 7.12 and 7.19 and 7.35 |
| C[C@H](N)Cc1c[nH]cn1 [CAS_75614-93-6] | 7.11 and 6.33 and 7.30 |
| CCCCCCC(=O)N1CCC(c2cnc[nH]2)CC1 [Carboperamide] | 8.21 and 7.70 |

— BindingDB's records for PubMed 7965746 (U. 109, 1994)
